Measured values from patent US10004732B2 (Novartis AG, priority 2014, dated 2018).
Where a name gives a salt, the structure may show the parent alone. Read-outs that look alike come from different tables or passages of the source.

Tests used:
[1] = target: T1, PI 3-kinase alpha (Homo sapiens, UniProt P42336); experiment: Kinase Glo Luminescent Kinase Assay (Kglo), assay A; assay type: biochemical; conditions: read-out: Assay A PI3Kα IC50
Target sequence in this assay (P42336 whole entry): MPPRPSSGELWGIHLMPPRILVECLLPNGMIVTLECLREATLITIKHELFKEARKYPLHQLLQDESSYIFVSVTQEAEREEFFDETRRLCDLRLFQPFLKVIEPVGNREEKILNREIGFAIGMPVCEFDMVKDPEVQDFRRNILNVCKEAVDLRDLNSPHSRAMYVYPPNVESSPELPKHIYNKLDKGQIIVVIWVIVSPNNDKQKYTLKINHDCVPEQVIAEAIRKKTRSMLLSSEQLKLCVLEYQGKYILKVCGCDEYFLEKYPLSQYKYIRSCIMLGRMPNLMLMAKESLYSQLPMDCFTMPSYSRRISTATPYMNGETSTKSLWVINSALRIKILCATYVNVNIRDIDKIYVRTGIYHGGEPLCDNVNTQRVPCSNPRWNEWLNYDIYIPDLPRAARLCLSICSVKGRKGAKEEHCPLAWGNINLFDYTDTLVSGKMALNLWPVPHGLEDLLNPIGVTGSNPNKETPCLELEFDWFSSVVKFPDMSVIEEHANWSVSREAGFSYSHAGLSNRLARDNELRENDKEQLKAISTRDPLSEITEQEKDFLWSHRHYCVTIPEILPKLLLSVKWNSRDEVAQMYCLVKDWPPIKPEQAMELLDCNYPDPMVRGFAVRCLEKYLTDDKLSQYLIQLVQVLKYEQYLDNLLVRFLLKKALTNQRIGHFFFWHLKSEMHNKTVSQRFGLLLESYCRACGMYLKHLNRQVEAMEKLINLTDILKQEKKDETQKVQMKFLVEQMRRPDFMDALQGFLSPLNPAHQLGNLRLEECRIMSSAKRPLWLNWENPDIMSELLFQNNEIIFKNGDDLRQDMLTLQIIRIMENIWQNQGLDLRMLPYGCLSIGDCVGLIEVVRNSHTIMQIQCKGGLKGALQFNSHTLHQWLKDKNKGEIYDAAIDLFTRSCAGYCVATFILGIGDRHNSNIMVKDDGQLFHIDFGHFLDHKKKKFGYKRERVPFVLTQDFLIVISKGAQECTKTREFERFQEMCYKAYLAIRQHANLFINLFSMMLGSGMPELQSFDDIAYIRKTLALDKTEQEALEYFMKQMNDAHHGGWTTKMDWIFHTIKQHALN

[2] = target: T2, PI 3-kinase beta (Homo sapiens, UniProt P42338); experiment: Kinase Glo Luminescent Kinase Assay (Kglo), assay B; assay type: biochemical; conditions: read-out: Assay B PI3Kβ IC50
Target sequence in this assay (P42338 whole entry): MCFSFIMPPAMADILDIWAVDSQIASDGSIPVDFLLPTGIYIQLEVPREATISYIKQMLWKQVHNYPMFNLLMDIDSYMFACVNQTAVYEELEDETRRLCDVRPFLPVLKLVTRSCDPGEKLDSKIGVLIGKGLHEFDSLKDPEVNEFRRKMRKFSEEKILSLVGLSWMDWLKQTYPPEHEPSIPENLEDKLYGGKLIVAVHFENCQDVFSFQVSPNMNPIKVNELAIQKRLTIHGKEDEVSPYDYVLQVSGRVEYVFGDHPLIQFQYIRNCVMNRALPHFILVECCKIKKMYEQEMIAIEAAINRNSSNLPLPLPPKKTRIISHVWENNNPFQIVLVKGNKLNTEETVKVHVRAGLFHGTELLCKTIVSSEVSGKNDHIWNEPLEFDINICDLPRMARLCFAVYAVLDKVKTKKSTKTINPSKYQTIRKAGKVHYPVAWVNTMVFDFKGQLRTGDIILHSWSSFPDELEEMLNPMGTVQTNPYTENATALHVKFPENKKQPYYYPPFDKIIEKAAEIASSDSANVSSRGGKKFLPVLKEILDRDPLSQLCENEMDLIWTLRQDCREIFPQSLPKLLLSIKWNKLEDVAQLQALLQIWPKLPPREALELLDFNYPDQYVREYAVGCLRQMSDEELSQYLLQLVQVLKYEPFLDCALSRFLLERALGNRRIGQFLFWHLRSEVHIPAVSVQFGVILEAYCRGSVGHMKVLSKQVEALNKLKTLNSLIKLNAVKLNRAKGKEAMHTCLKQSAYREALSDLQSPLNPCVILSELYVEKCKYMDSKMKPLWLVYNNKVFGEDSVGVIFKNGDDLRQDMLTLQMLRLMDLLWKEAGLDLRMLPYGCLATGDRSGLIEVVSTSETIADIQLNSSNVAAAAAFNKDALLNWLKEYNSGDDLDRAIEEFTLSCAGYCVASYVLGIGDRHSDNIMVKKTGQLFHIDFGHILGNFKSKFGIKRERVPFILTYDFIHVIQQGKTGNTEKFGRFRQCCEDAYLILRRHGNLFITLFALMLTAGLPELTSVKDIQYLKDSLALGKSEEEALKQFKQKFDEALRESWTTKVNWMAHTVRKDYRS
Target sequence in this assay (P27986 461-568 partner): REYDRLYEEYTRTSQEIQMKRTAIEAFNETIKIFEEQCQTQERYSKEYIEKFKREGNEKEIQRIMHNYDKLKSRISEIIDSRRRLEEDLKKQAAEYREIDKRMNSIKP

[3] = target: Vps34 (Homo sapiens, UniProt Q8NEB9); experiment: Kinase Glo Luminescent Kinase Assay (Kglo), assay C; assay type: biochemical; conditions: read-out: Assay C VPS34 IC50
[4] = target: PI 4-kinase beta (Homo sapiens, UniProt Q9UBF8); experiment: Kinase Glo Luminescent Kinase Assay (Kglo), assay D; assay type: biochemical; conditions: read-out: Assay D PI4Kβ IC50
[5] = target: PI 3-kinase gamma (Homo sapiens, UniProt P48736); experiment: TR-FRET Adapta assay, assay E; assay type: biochemical; conditions: read-out: Assay E PI3Kγ IC50
[6] = target: mTOR (Homo sapiens, UniProt P42345); experiment: Lanthascreen kinase binding assay, assay G; conditions: read-out: Assay G mTOR IC50
Procedure: Lanthascreen™ Kinase Binding Assay for mTOR (G)
Binding of an inhibitor to the kinase competes for binding with the tracer, resulting in a loss of FRET.
50 nL of compound dilutions were dispensed onto white 384-well small volume polystyrene plate.

[7] = target: T1, PI 3-kinase alpha; experiment: Cellular assay H1, p-Akt (S473) in Rat-1 cells, Surefire format; assay type: cell-based; conditions: non-asterisked data: version H1 (Surefire format), Rat-1 cells; read-out: Assay H PI3Kα IC50
Target sequence in this assay (P42336 whole entry): as the sequence (P42336 whole entry) above
Target sequence in this assay (Q63787 whole entry partner): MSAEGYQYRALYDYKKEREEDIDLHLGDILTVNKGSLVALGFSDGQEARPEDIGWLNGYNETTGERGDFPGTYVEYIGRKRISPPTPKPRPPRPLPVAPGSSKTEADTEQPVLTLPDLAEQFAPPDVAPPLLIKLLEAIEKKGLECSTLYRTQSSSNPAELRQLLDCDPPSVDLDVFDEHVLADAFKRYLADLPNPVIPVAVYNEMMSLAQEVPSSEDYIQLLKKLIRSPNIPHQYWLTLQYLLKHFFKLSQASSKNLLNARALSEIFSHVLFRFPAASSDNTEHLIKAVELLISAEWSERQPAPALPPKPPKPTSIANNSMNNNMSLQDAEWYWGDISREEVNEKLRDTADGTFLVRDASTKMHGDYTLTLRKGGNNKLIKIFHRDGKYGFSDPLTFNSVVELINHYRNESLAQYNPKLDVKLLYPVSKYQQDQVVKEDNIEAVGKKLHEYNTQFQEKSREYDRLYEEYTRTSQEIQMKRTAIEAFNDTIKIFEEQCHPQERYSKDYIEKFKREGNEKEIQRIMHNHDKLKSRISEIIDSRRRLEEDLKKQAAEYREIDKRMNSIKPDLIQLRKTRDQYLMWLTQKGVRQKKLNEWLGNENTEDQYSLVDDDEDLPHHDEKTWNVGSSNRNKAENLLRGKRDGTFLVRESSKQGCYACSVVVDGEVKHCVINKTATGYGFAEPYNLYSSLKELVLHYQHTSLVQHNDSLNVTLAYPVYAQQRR
Source text: (§1) Cellular Assays for PI 3-Kinase Alpha (H1), Beta (I1) and Delta (J1): Surefire Format
(§2) AlphaScreen (Amplified Luminescent Proximity Homogeneous Assay, ALPHA, Perkin Elmer) is a non-radioactive bead-based proximity assay technology to study biomolecular interactions in a homogenous microtiter plate format. The brand name SureFire denotes AlphaScreen assays that are adapted to quantify the phosphorylation of endogenous cellular proteins in cell lysates, by using matched antibody pairs, which consist of an anti-phospho-kinase and an anti-kinase antibody. The assay allows characterization of kinase signaling in cells as well as measurement of kinase inhibitor effects.
(§3) Using Rat-1 cells stably expressing myr-HA-tagged versions of the human PI3Kdelta, PI3Kalpha, or PI3Kbeta p110 catalytic subunit isoforms, the assay was developed as a two-plate protocol in a 384-well format.
(§4) For compound testing, the cells were seeded at a density of 4000 (Rat-1_PI3Kdelta), 7500 (Rat-1_PI3Kalpha), or 6200 (Rat-1_PI3Kbeta) cells in 20 μl complete growth medium into cell culture treated 384-well plates and were grown at 37° C./5% CO2/90% humidity for 24 h. Shortly before compound transfer, the complete medium was removed, 30 μl assay buffer (DMEM high glucose, 1×MEM NEAA, 10 mM HEPES, 2 mM L-glutamine, 0.1% (w/v) BSA) was added and 10 μl of the compound predilutions were transferred to the cells.

[8] = target: T2, PI 3-kinase beta; experiment: Cellular assay I1, p-Akt (S473) in Rat-1 cells, Surefire format; assay type: cell-based; conditions: non-asterisked data: version I1 (Surefire format), Rat-1 cells; read-out: Assay I PI3Kβ IC50
Target sequence in this assay (P42338 whole entry): as the sequence (P42338 whole entry) above
Target sequence in this assay (Q63787 whole entry partner): as the sequence (Q63787 whole entry partner) above
Source text: as §1, §2, §3, §4

[9] = target: T3, PI 3-kinase delta (Homo sapiens, UniProt O00329); experiment: Cellular assay J1, p-Akt (S473) in Rat-1 cells, Surefire format; assay type: cell-based; conditions: non-asterisked data: version J1 (Surefire format), Rat-1 cells; read-out: Assay J PI3Kδ IC50
Source text: as §1, §2, §3, §4

[10] = system: IL-8-induced neutrophil shape change in human whole blood; experiment: Whole blood neutrophil shape change assay (L); assay type: cell-based; conditions: IL-8, human whole blood, read-out: Assay L WBSC IC50
[11] = target: T3, PI 3-kinase delta; experiment: TR-FRET Adapta assay, assay F
Procedure: TR-FRET Adapta Assay for PI 3-Kinase Gamma (E), PI 3-Kinase Delta (F)
The TR-FRET Adapta™ Universal Kinase Assay Kit was purchased from Invitrogen Corporation (Carlsbad/CA, USA) (Cat. No. PV5099).
PIK3CD substrate phosphatidylinositol (PI) was obtained from Invitrogen (vesicules consisting of 2 mM phosphatidylinositol (PI) in 50 mM HEPES pH7.5; Cat. No. PV5371). PIK3CG substrate phosphatidylinositol-4,5-bisphosphate (PIP(4,5)2 was obtained from Invitrogen (PIP2:PS large unilamellar vesicules consisting of 1 mM PIP2: 19 mM PS in 50 mM HEPES pH7.5, 3 mM MgCl2, 1 mM EGTA; Cat. No. PV5100).
Time-Resolved Fluorescence Resonance Energy Transfer (TR-FRET) is a technology based on energy transfer between two adjacent dyes, from an excited electron in one dye (the donor) to an electron of an adjacent dye (the acceptor) through resonance, then released as a photon. This energy transfer is detected by an increase in the fluorescence emission of the acceptor, and a decrease in the fluorescence emission of the donor. TR-FRET assays for protein kinases use a long-lifetime lanthanide Terbium or Europium chelates as the donor species which overcome interference from compound autofluorescence or light scatter from precipitated compounds, by introducing a delay after excitation by a flashlamp excitation source. Results are often expressed as a ratio of the intensities of the acceptor and donor fluorophores. The ratiometric nature of such a value corrects for differences in assay volumes between wells, as well as corrects for quenching effects due to colored compounds. The Adapta™ assay can be divided into two phases: a kinase reaction phase and an ADP detection phase. In the kinase reaction phase, all kinase reaction components are added to the well and the reaction is allowed to incubate for a set period of time specific for each kinase. […] In the presence of an inhibitor, the amount of ADP formed by the kinase reaction is reduced, and the resulting intact antibody-tracer interaction maintains a high TR-FRET signal.
50 nL of compound dilutions were dispensed onto white 384-well small volume polystyrene plate. Then 5 μL of either PI 3-kinase gamma or PI 3-kinase delta and lipid substrate (PI or PIP2:PS) followed by 5 μL of ATP (final assay volume 10 μL) are incubated at RT. The standard reaction buffer for the Adapta™ TR-FRET assay contained 10 mM Tris-HCl pH 7.5, 3 mM MgCl2, 50 mM NaCl, 1 mM DTT, 0.05% CHAPS 3-[(3-cholamidopropyl)dimethylammonio]-1-propanesulfonate).
Data are analyzed using Excel fit software or Graphpad Prism. IC50 values were derived by fitting a sigmoidal dose-response curve to a plot of assay readout over inhibitor concentration. All fits were performed with the program XLfit4 (ID Business Solutions, Guildford, UK). […] All fits were performed with the program XLfit4 (ID Business Solutions, Guildford, UK).

[12] = Microsomal clearance assay (M); conditions: intrinsic clearance in rat liver microsomes
Procedure: The experiments were performed in 96-well glass plates at 37° C. on an automated Tecan EVO platform. Test compounds at a concentration of 10 mM in pure DMSO were diluted 1:1000 in water to 10 μM. […] Reactions were initiated by the addition of 150 μL of a cofactor solution containing 2 mM NADPH.

Sequence of Vps34 (Q8NEB9 whole entry, species assumed): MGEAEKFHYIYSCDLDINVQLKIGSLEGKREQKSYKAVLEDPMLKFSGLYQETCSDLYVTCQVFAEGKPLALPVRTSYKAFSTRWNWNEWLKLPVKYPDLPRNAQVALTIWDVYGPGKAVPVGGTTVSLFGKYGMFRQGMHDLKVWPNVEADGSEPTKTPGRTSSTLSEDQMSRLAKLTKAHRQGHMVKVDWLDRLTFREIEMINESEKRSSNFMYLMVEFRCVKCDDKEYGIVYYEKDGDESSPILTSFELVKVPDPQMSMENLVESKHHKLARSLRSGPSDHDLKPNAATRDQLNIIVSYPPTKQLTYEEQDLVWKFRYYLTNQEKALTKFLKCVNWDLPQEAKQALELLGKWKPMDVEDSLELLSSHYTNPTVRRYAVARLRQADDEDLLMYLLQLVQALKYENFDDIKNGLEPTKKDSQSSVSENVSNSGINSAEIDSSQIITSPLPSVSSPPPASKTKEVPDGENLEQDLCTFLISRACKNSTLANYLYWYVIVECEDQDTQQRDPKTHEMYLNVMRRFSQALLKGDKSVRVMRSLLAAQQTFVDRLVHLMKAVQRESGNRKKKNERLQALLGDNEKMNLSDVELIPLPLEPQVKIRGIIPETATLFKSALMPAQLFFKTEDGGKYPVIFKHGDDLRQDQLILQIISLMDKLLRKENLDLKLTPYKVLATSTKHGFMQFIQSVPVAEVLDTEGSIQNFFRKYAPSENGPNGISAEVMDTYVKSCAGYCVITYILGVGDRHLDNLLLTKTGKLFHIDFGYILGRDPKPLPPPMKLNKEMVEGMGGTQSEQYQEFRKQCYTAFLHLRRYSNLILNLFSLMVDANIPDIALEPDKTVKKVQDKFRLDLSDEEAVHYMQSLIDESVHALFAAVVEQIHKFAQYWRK
Sequence of PI 4-kinase beta (Q9UBF8 whole entry): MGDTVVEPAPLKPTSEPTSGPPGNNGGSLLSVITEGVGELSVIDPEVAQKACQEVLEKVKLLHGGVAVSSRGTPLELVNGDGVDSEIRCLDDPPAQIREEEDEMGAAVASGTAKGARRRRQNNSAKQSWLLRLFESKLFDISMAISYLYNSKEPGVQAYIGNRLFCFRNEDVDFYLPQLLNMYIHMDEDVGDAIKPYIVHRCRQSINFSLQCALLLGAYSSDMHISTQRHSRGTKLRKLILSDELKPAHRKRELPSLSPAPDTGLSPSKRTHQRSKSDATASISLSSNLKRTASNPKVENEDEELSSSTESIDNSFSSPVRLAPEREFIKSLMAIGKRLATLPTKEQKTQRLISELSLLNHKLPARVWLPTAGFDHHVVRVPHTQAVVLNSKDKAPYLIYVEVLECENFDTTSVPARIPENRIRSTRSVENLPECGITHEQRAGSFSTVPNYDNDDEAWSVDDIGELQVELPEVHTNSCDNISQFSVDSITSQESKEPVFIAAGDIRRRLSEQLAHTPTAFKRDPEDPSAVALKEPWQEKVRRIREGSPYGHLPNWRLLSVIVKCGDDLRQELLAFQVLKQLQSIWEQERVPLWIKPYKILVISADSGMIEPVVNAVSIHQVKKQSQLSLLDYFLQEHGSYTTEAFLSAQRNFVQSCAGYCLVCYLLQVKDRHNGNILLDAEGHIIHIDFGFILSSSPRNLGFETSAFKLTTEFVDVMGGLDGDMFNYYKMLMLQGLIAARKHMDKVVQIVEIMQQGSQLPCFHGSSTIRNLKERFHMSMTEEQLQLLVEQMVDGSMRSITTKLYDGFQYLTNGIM

SMILES	IC50 [1] [nM]	IC50 [2] [nM]	IC50 [3] [nM]	IC50 [4] [nM]	IC50 [5] [nM]	IC50 [6] [nM]	IC50 [7] [nM]	IC50 [8] [nM]	IC50 [9] [nM]	IC50 ([11]; Assay F PI3Kδ IC50 (μM)) [µM]	Assay M RLM CI(int) [12] [µL/min/mg]	IC50 ([10]; Homo sapiens, Neutrophil) [nM]	IC50 ([11]; read-out: Assay F PI3Kδ IC50) [µM]	IC50 [10] [nM]
CC(C)(O)CNS(=O)(=O)c1cccc(-c2cnc(N)c(-n3cncn3)n2)c1 [Example 123, 3-(5-Amino-6-(1H-1,2,4-triazol-1-yl)pyrazin-2-yl)-N-(2-hydroxy-2-methylpropyl)benzenesulfonamide]	2900	5500	> 10000	2500	2100	9000	> 10000	> 10000	3630		62	85100	4.7	
CC(C)(O)CNS(=O)(=O)c1ccc(Cl)c(-c2cnc(N)c(-n3cncn3)n2)c1 [Example 37, 3-(5-Amino-6-(1H-1,2,4-triazol-1-yl)pyrazin-2-yl)-4-chloro-N-(2-hydroxy-2-methylpropyl)benzenesulfonamide]	1000	3500	> 9100	3500	83	5900	7910	1890	5920		33	1550	0.73	
Cc1ccc(S(=O)(=O)NCC(C)(C)O)cc1-c1cnc(N)c(-c2cnn(CC(F)(F)F)n2)n1 [Example 84, 3-(5-Amino-6-(2-(2,2,2-trifluoroethyl)-2H-1,2,3-triazol-4-yl)pyrazin-2-yl)-N-(2-hydroxy-2-methylpropyl)-4-methyl benzenesulfonamide]	120	2300	> 10000	7050	42	> 10000	450	> 3000	440		64	1010	0.21	
CC(C)(O)CCNS(=O)(=O)c1ccc(Cl)c(-c2cnc(N)c(-n3cncn3)n2)c1 [Example 38, 3-(5-Amino-6-(1H-1,2,4-triazol-1-yl)pyrazin-2-yl)-4-chloro-N-(3-hydroxy-3-methylbutyl)benzenesulfonamide]	920	3500	> 9100	4200	25	8400	3020	2110	2360		89	3380	0.14	
Cc1ccc(S(=O)(=O)NCC(C)(C)O)cc1-c1cnc(N)c(-n2cnc(C3CC3)n2)n1 [Example 109, 3-(5-Amino-6-(3-cyclopropyl-1H-1,2,4-triazol-1-yl)pyrazin-2-yl)-N-(2-hydroxy-2-methylpropyl)-4-methyl benzenesulfonamide]	440	3000	> 10000	8600	28		2610	> 10000	1900		<3.4	935	0.69	
Cc1ccc(S(=O)(=O)N[C@H]2CC[C@H](O)CC2)cc1-c1cnc(N)c(-c2cncnc2)n1 [Example 59, Trans-3-(5-Amino-6-(pyrimidin-5-yl)pyrazin-2-yl)-N-(-4-hydroxycyclohexyl)-4-methylbenzenesulfonamide]	910	5290	> 9100	> 9100	105	6020	8470		6420			801	0.41	
Cc1ccc(S(=O)(=O)NCCC(C)(C)O)cc1-c1cnc(N)c(-c2nc(C3CC3)no2)n1 [Example 143, 3-(5-Amino-6-(3-cyclopropyl-1,2,4-oxadiazol-5-yl)pyrazin-2-yl)-N-(3-hydroxy-3-methylbutyl)-4-methylbenzenesulfonamide]			> 9100	> 9100		2190	2350	6030	1010		134	1700		
Cc1ccc(S(=O)(=O)NC[C@H]2C[C@@H](O)C2)cc1-c1cnc(N)c(-c2nc(C3CC3)no2)n1 [Example 94, 3-(5-Amino-6-(3-cyclopropyl-1,2,4-oxadiazol-5-yl)pyrazin-2-yl)-N-(((1s,3s)-3-hydroxycyclobutyl)methyl)-4-methylbenzenesulfonamide]	1700	> 9100	> 9100	> 9100	14	8900	2980	8960	2090			3780	0.57	
Cc1nc(C)n(-c2nc(-c3cc(S(=O)(=O)NCC(C)(C)O)ccc3C)cnc2N)n1 [Example 49, 3-(5-Amino-6-(3,5-dimethyl-1H-1,2,4-triazol-1-yl)pyrazin-2-yl)-N-(2-hydroxy-2-methylpropyl)-4-methylbenzenesulfonamide]	620	5300	> 10000	> 10000	49	> 10000					20	856	1.7	
Cc1ccc(S(=O)(=O)NC2CC3(CC(O)C3)C2)cc1-c1cnc(N)c(-c2cn(C)nc2C)n1 (single isomer, unassigned) [Example 9b, (R)-3-[5-Amino-6-(1,3-dimethyl-1H-pyrazol-4-yl)-pyrazin-2-yl]-N-(6-hydroxy-spiro[3.3]hept-2-yl)-4-methyl-benzenesulfonamide or (S)-3-[5-Amino-6-(1,3-dimethyl-1H-pyrazol-4-yl)-pyrazin-2-yl]-N-(6-hydroxy-spiro[3.3]hept-2-yl)-4-methyl-benzenesulfonamide]		1200	> 10000		12	> 10000		> 10000	7640		27		0.24	335

Continued, in another order:

IC50 [1] [nM]	IC50 [2] [nM]	IC50 [3] [nM]	IC50 [4] [nM]	IC50 [5] [nM]	IC50 [6] [nM]	IC50 [7] [nM]	IC50 [8] [nM]	IC50 [9] [nM]	IC50 ([11]; Assay F PI3Kδ IC50 (μM)) [µM]	Assay M RLM CI(int) [12] [µL/min/mg]	IC50 ([10]; Homo sapiens, Neutrophil) [nM]	IC50 ([11]; read-out: Assay F PI3Kδ IC50) [µM]	SMILES	IC50 [10] [nM]
840	2500	> 10000	> 10000	4	5900	4060	> 10000	3980	1.1	57			Cc1ccc(S(=O)(=O)NC2CC3(CC(O)C3)C2)cc1-c1cnc(N)c(-n2cncn2)n1 (single isomer, unassigned) [Example 70b, (S)-3-(5-Amino-6-(1H-1,2,4-triazol-1-yl)pyrazin-2-yl)-N-(6-hydroxyspiro[3.3]heptan-2-yl)-4-methylbenzenesulfonamide or (R)-3-(5-Amino-6-(1H-1,2,4-triazol-1-yl)pyrazin-2-yl)-N-(6-hydroxyspiro[3.3]heptan-2-yl)-4-methylbenzenesulfonamide]	687
640	> 9100	> 9100	> 9100	173	> 9100	2730	8380	3330		105	5680	0.79	COCCCNS(=O)(=O)c1ccc(C)c(-c2cnc(N)c(-c3ccnc(C)c3)n2)c1 [Example 129.11, 3-(5-amino-6-(2-methylpyridin-4-yl)pyrazin-2-yl)-N-(3-methoxypropyl)-4-methylbenzenesulfonamide]	
1400	730	> 10000	5900	50	5000	> 10000	> 10000	> 10000		21	13800	0.76	Cc1ccc(S(=O)(=O)NC[C@@H]2CCNC2)cc1-c1cnc(N)c(-n2cncn2)n1 [Example 127.57, (R)-3-(5-amino-6-(1H-1,2,4-triazol-1-yl)pyrazin-2-yl)-4-methyl-N-(pyrrolidin-3-ylmethyl)benzenesulfonamide trifluoroacetic acid salt]	
420	1200	> 10000	> 10000	73	7400	9610	3560	6000		25	715	1.4	Cc1ccc(S(=O)(=O)NCC2(C(N)=O)CC2)cc1-c1cnc(N)c(-n2cncn2)n1 [Example 127.56]	
